In patent publication EP4755888A1 (ILAb Co., Ltd., priority 2023, dated 2025):
pIC50: −log10 of the molar value.

The compounds below were run against PD-1/PD-L1 (Homo sapiens, UniProt Q9NZQ7) (assay: TR-FRET PD-1/PD-L1 binding inhibition at the molecular level (free proteins)). Conditions: Tag1-PD-L1 and Tag2-PD-1 proteins, twelve concentrations from 200 nM, 2 hours at room temperature, read-out: FRET assay (IC50).
In short: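 HTRF read-out at 665/620 nm after 2 h at room temperature. Detection used anti-Tag1 Eu cryptate plus anti-Tag2 XL665 antibodies. Tagged PD-L1 and PD-1 proteins were pre-mixed with compound across twelve […] 1:2 dilutions starting at 200 nM.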

PD-1/PD-L1, sequence (Q9NZQ7 19-238 limits assumed): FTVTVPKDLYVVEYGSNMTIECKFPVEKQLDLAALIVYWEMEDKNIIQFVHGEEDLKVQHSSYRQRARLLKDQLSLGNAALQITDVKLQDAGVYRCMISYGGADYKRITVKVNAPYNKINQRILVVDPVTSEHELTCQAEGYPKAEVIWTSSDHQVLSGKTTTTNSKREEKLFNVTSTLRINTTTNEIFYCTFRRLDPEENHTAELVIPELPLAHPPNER

SMILES	pIC50
Cc1c(Nc2nccc3cc(CN4CC[C@@H](O)C4)cnc23)cccc1-c1cccc(-c2cc3n(n2)CCCC3NCCO)c1C (stereo partly drawn) [Compound 174, (3R)-1-((8-((3'-(4-((2-hydroxyethyl)amino)-4,5,6,7-tetrahydropyrazolo[1,5-a]pyridin-2-yl)-2,2'-dimethyl-[1,1'-biphenyl]-3-yl)amino)-1,7-naphthyridin-3-yl)methyl)pyrrolidin-3-ol]	> 8.00
CC(=O)NCCNC1CCCn2nc(-c3cccc(-c4cccc(Nc5nccc6cc(CN7CC[C@@H](O)C7)cnc56)c4C)c3C)cc21 (stereo partly drawn) [Compound 175, N-(2-((2-(3'-((3-(((R)-3-hydroxypyrrolidin-1-yl)methyl)-1,7-naphthyridin-8-yl)amino)-2,2'-dimethyl-[1,1'-biphenyl]-3-yl)-4,5,6,7-tetrahydropyrazolo[1,5-a]pyridin-4-yl)amino)ethyl)acetamide]	> 8.00
Cc1c(Nc2nccc3cc(CN4CC[C@@H](O)C4)cnc23)cccc1-c1cccc(-c2cc3n(n2)CCCC3NC[C@@H]2CCC(=O)N2)c1C (stereo partly drawn) [Compound 176, (5S)-5-(((2-(3'-((3-(((R)-3-hydroxypyrrolidin-1-yl)methyl)-1,7-naphthyridin-8-yl)amino)-2,2'-dimethyl-[1,1'-biphenyl]-3-yl)-4,5,6,7-tetrahydropyrazolo[1,5-a]pyridin-4-yl)amino)methyl)pyrrolidin-2-one]	7.00 to 8.00
Cc1c(Nc2nccc3cc(CN4CC[C@@H](O)C4)cnc23)cccc1-c1cccc(-c2cc3n(n2)CCCC3N2CC[C@@H](O)C2)c1C (stereo partly drawn) [Compound 177, (3R)-1-((8-((3'-(4-((R)-3-hydroxypyrrolidin-1-yl)-4,5,6,7-tetrahydropyrazolo[1,5-a]pyridin-2-yl)-2,2'-dimethyl-[1,1'-biphenyl]-3-yl)amino)-1,7-naphthyridin-3-yl)methyl)pyrrolidin-3-ol]	> 8.00
Cc1c(Nc2nccc3cc(CN4CC[C@@H](O)C4)cnc23)cccc1-c1cccc(-c2cc3n(n2)CCCC3N2CC[C@@H](C(=O)O)C2)c1C (stereo partly drawn) [Compound 178, (3R)-1-(2-(3'-((3-(((R)-3-hydroxypyrrolidin-1-yl)methyl)-1,7-naphthyridin-8-yl)amino)-2,2'-dimethyl-[1,1'-biphenyl]-3-yl)-4,5,6,7-tetrahydropyrazolo[1,5-a]pyridin-4-yl)pyrrolidine-3-carboxylic acid]	> 8.00
Cc1c(Nc2nccc3cc(CN4CC[C@@H](O)C4)cnc23)cccc1-c1cccc(-c2cc3n(n2)CCCC3NCC(=O)O)c1C (stereo partly drawn) [Compound 179, 2-((2-(3'-((3-(((R)-3-hydroxypyrrolidin-1-yl)methyl)-1,7-naphthyridin-8-yl)amino)-2,2'-dimethyl-[1,1'-biphenyl]-3-yl)-4,5,6,7-tetrahydropyrazolo[1,5-a]pyridin-4-yl)amino)acetic acid]	> 8.00
OCCNC1CCCn2nc(-c3cccc(-c4cccc(Nc5nccc6cc(CN7CC[C@@H](O)C7)cnc56)c4Cl)c3Cl)cc21 (stereo partly drawn) [Compound 180, (3R)-1-((8-((2,2'-dichloro-3'-(4-((2-hydroxyethyl)amino)-4,5,6,7-tetrahydropyrazolo[1,5-a]pyridin-2-yl)-[1,1'-biphenyl]-3-yl)amino)-1,7-naphthyridin-3-yl)methyl)pyrrolidin-3-ol]	> 8.00
CC(=O)NCCNC1CCCn2nc(-c3cccc(-c4cccc(Nc5nccc6cc(CN7CC[C@@H](O)C7)cnc56)c4Cl)c3Cl)cc21 (stereo partly drawn) [Compound 181, N-(2-((2-(2,2'-dichloro-3'-((3-(((R)-3-hydroxypyrrolidin-1-yl)methyl)-1,7-naphthyridin-8-yl)amino)-[1,1'-biphenyl]-3-yl)-4,5,6,7-tetrahydropyrazolo[1,5-a]pyridin-4-yl)amino)ethyl)acetamide]	> 8.00
O=C1CC[C@@H](CNC2CCCn3nc(-c4cccc(-c5cccc(Nc6nccc7cc(CN8CC[C@@H](O)C8)cnc67)c5Cl)c4Cl)cc32)N1 (stereo partly drawn) [Compound 182, (5S)-5-(((2-(2,2'-dichloro-3'-((3-(((R)-3-hydroxypyrrolidin-1-yl)methyl)-1,7-naphthyridin-8-yl)amino)-[1,1'-biphenyl]-3-yl)-4,5,6,7-tetrahydropyrazolo[1,5-a]pyridin-4-yl)amino)methyl)pyrrolidin-2-one]	7.00 to 8.00
O[C@@H]1CCN(Cc2cnc3c(Nc4cccc(-c5cccc(-c6cc7n(n6)CCCC7N6CC[C@@H](O)C6)c5Cl)c4Cl)nccc3c2)C1 (stereo partly drawn) [Compound 183, (3R)-1-(2-(2,2'-dichloro-3'-((3-(((R)-3-hydroxypyrrolidin-1-yl)methyl)-1,7-naphthyridin-8-yl)amino)-[1,1'-biphenyl]-3-yl)-4,5,6,7-tetrahydropyrazolo[1,5-a]pyridin-4-yl)pyrrolidin-3-ol]	> 8.00
O=C(O)[C@@H]1CCN(C2CCCn3nc(-c4cccc(-c5cccc(Nc6nccc7cc(CN8CC[C@@H](O)C8)cnc67)c5Cl)c4Cl)cc32)C1 (stereo partly drawn) [Compound 184, (3R)-1-(2-(2,2'-dichloro-3'-((3-(((R)-3-hydroxypyrrolidin-1-yl)methyl)-1,7-naphthyridin-8-yl)amino)-[1,1'-biphenyl]-3-yl)-4,5,6,7-tetrahydropyrazolo[1,5-a]pyridin-4-yl)pyrrolidine-3-carboxylic acid]	> 8.00
O=C(O)CNC1CCCn2nc(-c3cccc(-c4cccc(Nc5nccc6cc(CN7CC[C@@H](O)C7)cnc56)c4Cl)c3Cl)cc21 (stereo partly drawn) [Compound 185, 2-((2-(2,2'-dichloro-3'-((3-(((R)-3-hydroxypyrrolidin-1-yl)methyl)-1,7-naphthyridin-8-yl)amino)-[1,1'-biphenyl]-3-yl)-4,5,6,7-tetrahydropyrazolo[1,5-a]pyridin-4-yl)amino)acetic acid]	> 8.00
COc1cc(-c2cccc(-c3cccc(NC(=O)c4cc5n(n4)CCCC5NCC(=O)O)c3Cl)c2Cl)cc(F)c1CNCCO (stereo not drawn) [Compound 186, 2-((2-((2,2'-dichloro-3"-fluoro-4"-(((2-hydroxyethyl)amino)methyl)-5"-methoxy-[1,1':3',1"-terphenyl]-3-yl)carbamoyl)-4,5,6,7-tetrahydropyrazolo[1,5-a]pyridin-4-yl)amino)acetic acid]	> 8.00
COc1cc(-c2cccc(-c3cccc(NC(=O)c4cc5n(n4)CCCC5NCC(=O)O)c3Cl)c2Cl)cc(F)c1CN1CC[C@@H](O)C1 (stereo partly drawn) [Compound 187, 2-((2-((2,2'-dichloro-3"-fluoro-4"-(((R)-3-hydroxypyrrolidin-1-yl)methyl)-5"-methoxy-[1,1':3',1"-terphenyl]-3-yl)carbamoyl)-4,5,6,7-tetrahydropyrazolo[1,5-a]pyridin-4-yl)amino)acetic acid]	> 8.00
COc1cc(-c2cccc(-c3cccc(NC(=O)c4cc5n(n4)CCCC5NCC(=O)O)c3Cl)c2Cl)cc(F)c1CNC[C@@H]1CCC(=O)N1 (stereo partly drawn) [Compound 188, 2-((2-((2,2'-dichloro-3"-fluoro-5"-methoxy-4"-(((((S)-5-oxopyrrolidin-2-yl)methyl)amino)methyl)-[1,1':3',1"-terphenyl]-3-yl)carbamoyl)-4,5,6,7-tetrahydropyrazolo[1,5-a]pyridin-4-yl)amino)acetic acid]	> 8.00
COc1cc(-c2cccc(-c3cccc(NC(=O)c4cc5n(n4)CCCC5NCC(=O)O)c3Cl)c2Cl)cc(F)c1CNCCNC(C)=O (stereo not drawn) [Compound 189, 2-((2-((4"-(((2-acetamidoethyl)amino)methyl)-2,2'-dichloro-3"-fluoro-5"-methoxy-[1,1':3',1"-terphenyl]-3-yl)carbamoyl)-4,5,6,7-tetrahydropyrazolo[1,5-a]pyridin-4-yl)amino)acetic acid]	> 8.00
COc1cc(C(=O)Nc2cccc(-c3cccc(NC(=O)c4cc5n(n4)CCCC5NCC(=O)O)c3Cl)c2Cl)cc(F)c1CNCCO (stereo not drawn) [Compound 190, 2-((2-((2,2'-dichloro-3'-(3-fluoro-4-(((2-hydroxyethyl)amino)methyl)-5-methoxybenzamido)-[1,1'-biphenyl]-3-yl)carbamoyl)-4,5,6,7-tetrahydropyrazolo[1,5-a]pyridin-4-yl)amino)acetic acid]	> 8.00
COc1cc(C(=O)Nc2cccc(-c3cccc(NC(=O)c4cc5n(n4)CCCC5NCC(=O)O)c3Cl)c2Cl)cc(F)c1CNCC(=O)O (stereo not drawn) [Compound 191, 2-((4-((3'-(4-((carboxymethyl)amino)-4,5,6,7-tetrahydropyrazolo[1,5-a]pyridine-2-carboxamido)-2,2'-dichloro-[1,1'-biphenyl]-3-yl)carbamoyl)-2-fluoro-6-methoxybenzyl)amino)acetic acid]	> 8.00
COc1cc(C(=O)Nc2cccc(-c3cccc(NC(=O)c4cc5n(n4)CCCC5NCC(=O)O)c3Cl)c2Cl)cc(F)c1CN1CC[C@@H](O)C1 (stereo partly drawn) [Compound 192, 2-((2-((2,2'-dichloro-3'-(3-fluoro-4-(((R)-3-hydroxypyrrolidin-1-yl)methyl)-5-methoxybenzamido)-[1,1'-biphenyl]-3-yl)carbamoyl)-4,5,6,7-tetrahydropyrazolo[1,5-a]pyridin-4-yl)amino)acetic acid]	> 8.00
COc1cc(C(=O)Nc2cccc(-c3cccc(NC(=O)c4cc5n(n4)CCCC5NCC(=O)O)c3Cl)c2Cl)cc(F)c1CN1CC[C@@H](C(=O)O)C1 (stereo partly drawn) [Compound 193, (3R)-1-(4-((3'-(4-((carboxymethyl)amino)-4,5,6,7-tetrahydropyrazolo[1,5-a]pyridine-2-carboxamido)-2,2'-dichloro-[1,1'-biphenyl]-3-yl)carbamoyl)-2-fluoro-6-methoxybenzyl)pyrrolidine-3-carboxylic acid]	> 8.00
COc1cc(C(=O)Nc2cccc(-c3cccc(NC(=O)c4cc5n(n4)CCCC5N4CC[C@@H](C(=O)O)C4)c3Cl)c2Cl)cc(F)c1CNCCO (stereo partly drawn) [Compound 194, (3R)-1-(2-((2,2'-dichloro-3'-(3-fluoro-4-(((2-hydroxyethyl)amino)methyl)-5-methoxybenzamido)-[1,1'-biphenyl]-3-yl)carbamoyl)-4,5,6,7-tetrahydropyrazolo[1,5-a]pyridin-4-yl)pyrrolidine-3-carboxylic acid]	> 8.00
